Results: US9302999B2, “Substituted triazoles as herbicides” (E. I. DU PONT DE NEMOURS AND COMPANY, priority 2012, dated 2016)
Read-outs that look alike come from different tables or passages of the source.

What was measured:
Type in all cases: in vivo
[1] = tested on: sedge, umbrella (small-flower umbrella sedge, Cyperus difformis); experiment: Test C flooded paddy test: sedge, umbrella; settings: scale 0 to 100 (0 no effect, 100 complete control); for pest or weed control at 62 g/ha / pest or weed control at 125 g/ha / pest or weed control at 250 g/ha / pest or weed control at 31 g/ha: Cyperus difformis, read-out: Plant response rating, Sedge, Umbrella
Summary of the method: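 Plants at 2-leaf stage in pots flooded 3 cm above soil; compounds applied directly into the paddy water, depth maintained. Visual rating against controls after 13–15 days in greenhouse, scale 0 (no effect) to 100 (complete control).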

[2] = tested on: foxtail, green (green foxtail, Setaria viridis); experiment: Test C pre-/postemergence: foxtail, green
From the text: (§1) Seeds of plant species selected from blackgrass (Alopecurus myosuroides), bromegrass, downy (downy bromegrass, Bromus tectorum), foxtail, green (green foxtail, Setaria viridis), ryegrass, Italian (Italian ryegrass, Lolium multiflorum), winter wheat (Triticum aestivum), wild oat (Avena fatua), galium (catchweed bedstraw, Galium aparine), bermudagrass (Cynodon dactylon), surinam grass (Brachiaria decumbens), cocklebur (common cocklebur, Xanthium strumarium), corn (Zea mays), large crabgrass (Digitaria sanguinalis), woolly cupgrass (Eriochloa villosa), foxtail, giant (giant foxtail, Setaria faberii), goosegrass (Eleusine indica), johnsongrass (Sorghum halepense), kochia (Kochia scoparia), lambsquarters (Chenopodium album), morningglory (Ipomoea coccinea), nightshade (eastern black nightshade, Solanum ptycanthum), nutsedge, yellow (yellow nutsedge, Cyperus esculentus), pigweed (Amaranthus retroflexus), ragweed (common ragweed, Ambrosia elation), soybean (Glycine max), common (oilseed) sunflower (Helianthus annuus), Russian thistle (Salsola kali) and velvetleaf (Abutilon theophrasti) were planted into a blend of loam soil and sand and treated preemergence with test chemicals formulated in a non-phytotoxic solvent mixture which included a surfactant.
(§2) At the same time, plants selected from these crop and weed species and also barley (winter barley, Hordeum vulgare), canarygrass (Phalaris minor), chickweed (common chickweed, Stellaria media) windgrass (Apera spica-venti) and deadnettle (henbit deadnettle, Lamium amplexicaule) were planted in pots containing Redi-Earth® planting medium (Scotts Company, 14111 Scottslawn Road, Marysville, Ohio 43041) comprising spaghnum peat moss, vermiculite, wetting agent and starter nutrients and treated with postemergence applications of test chemicals formulated in the same manner. Plants ranged in height from 2 to 18 cm (1- to 4-leaf stage) for postemergence treatments.
(§3) Treated plants and controls were maintained in a greenhouse for 13 to 15 days, after which time all species were compared to controls and visually evaluated. Plant response ratings, summarized in Table C, are based on a scale of 0 to 100 where 0 is no effect and 100 is complete control. A dash (-) response means no test result.

[3] = tested on: goosegrass (Eleusine indica); experiment: Test C pre-/postemergence: goosegrass
From the text: as §1, §2, §3

[4] = tested on: barley (winter barley, Hordeum vulgare); experiment: Test C postemergence: barley
From the text: as §2, §3

[5] = tested on: Russian thistle (Salsola iberica); experiment: Test D pre-/postemergence: Russian thistle; settings: Postemergence
From the text: (§4) Seeds of plant species selected from bluegrass (annual bluegrass, Poa annua), blackgrass (Alopecurus myosuroides), canarygrass (Phalaris minor), chickweed (common chickweed, Stellaria media), galium (catchweed bedstraw, Galium aparine), bromegrass, downy (downy bromegrass, Bromus tectorum), field poppy (Papaver rhoeas), field violet (Viola arvensis), foxtail, green (green foxtail, Setaria viridis), deadnettle (henbit deadnettle, Lamium amplexicaule), ryegrass, Italian (Italian ryegrass, Lolium multiflorum), kochia (Kochia scoparia), lambsquarters (Chenopodium album), oilseed rape (Brassica napus), pigweed (Amaranthus retroflexus), Russian thistle (Salsola iberica), chamomile (scentless chamomile, Matricaria inodora), speedwell (bird's-eye speedwell, Veronica persica), barley, spring (spring barley, Hordeum vulgare), wheat, spring (spring wheat, Triticum aestivum), buckwheat, wild (wild buckwheat, Polygonum convolvulus), mustard, wild (wild mustard, Sinapis arvensis), oat, wild (wild oat, Avena fatua), radish, wild (wild radish, Raphanus raphanistrum), windgrass (Apera spica-venti), barley, winter (winter barley, Hordeum vulgare), and wheat, winter (winter wheat, Triticum aestivum) were planted into a silt loam soil and treated preemergence with test chemicals formulated in a non-phytotoxic solvent mixture which included a surfactant. At the same time, these same crop and weed species were planted in pots containing the planting medium comprising spaghnum peat moss, vermiculite, wetting agent and starter nutrients and treated with postemergence applications of the test chemicals formulated in the same manner. Plants ranged in height from 2 to 18 cm (1- to 4-leaf stage).
as §3, with “controlled growth environment” for “greenhouse”, “14” for “13”, “21 days” for “15 days,”, “D,” for “C,”

[6] = tested on: wheat, winter (winter wheat, Triticum aestivum); experiment: Test D pre-/postemergence: wheat, winter
From the text: as §4
as §3, with “controlled growth environment” for “greenhouse”, “14” for “13”, “21 days” for “15 days,”, “D,” for “C,”

[7] = tested on: bluegrass (annual bluegrass, Poa annua); experiment: Test D pre-/postemergence: bluegrass
From the text: as §4
as §3, with “controlled growth environment” for “greenhouse”, “14” for “13”, “21 days” for “15 days,”, “D,” for “C,”

[8] = tested on: field violet (Viola arvensis); experiment: Test D pre-/postemergence: field violet
From the text: as §4
as §3, with “controlled growth environment” for “greenhouse”, “14” for “13”, “21 days” for “15 days,”, “D,” for “C,”

[9] = Flood (flooded paddy test), 62 g ai/ha, visual rating after 13 to 15 days
[10] = Flood (flooded paddy test), 125 g ai/ha, visual rating after 13 to 15 days
[11] = Flood (flooded paddy test), 250 g ai/ha, visual rating after 13 to 15 days
[12] = Postemergence, 31 g ai/ha, scale 0 to 100 (0 no effect, 100 complete control)
[13] = Postemergence, 62 g ai/ha, scale 0 to 100 (0 no effect, 100 complete control)
[14] = Postemergence, 125 g ai/ha, scale 0 to 100, 0 no effect, 100 complete control
[15] = Postemergence, 250 g ai/ha, scale 0 to 100
[16] = Preemergence, 31 g ai/ha, scale of 0 to 100, 0 is no effect, 100 is complete control
[17] = Preemergence, 62 g ai/ha, scale of 0 to 100, 0 is no effect, 100 is complete control
[18] = Preemergence, 125 g ai/ha, scale 0 to 100, 0 no effect, 100 complete control
[19] = Preemergence, 250 g ai/ha, scale 0 to 100, 0 no effect, 100 complete control
[20] = 31 g ai/ha, scale 0 to 100 (0 no effect, 100 complete control)
[21] = 62 g ai/ha, scale 0 to 100 (0 no effect, 100 complete control)
[22] = 125 g ai/ha, scale 0 to 100, 0 no effect, 100 complete control
[23] = Postemergence, 16 g ai/ha, scale 0 to 100, 0 no effect, 100 complete control
[24] = Postemergence, 16 g ai/ha, scale 0 to 100
[25] = Preemergence, 16 g ai/ha, scale 0 to 100 (0 no effect, 100 complete control)
[26] = Preemergence, 31 g ai/ha, scale 0 to 100 (0 no effect, 100 complete control)
[27] = Preemergence, 62 g ai/ha, scale 0 to 100
[28] = Preemergence, 125 g ai/ha, scale 0 to 100

COc1nn(-c2ccc(C(F)(F)F)cc2)nc1Cn1ccc(C(F)(F)F)n1 [Compound 17, 4-methoxy-2-[4-(trifluoromethyl)phenyl]-5-[[3-(trifluoromethyl)-1H-pyrazol-1-yl]methyl]-2H-1,2,3-triazole]
pest or weed control at 62 g/ha [1, 9]: 20% | pest or weed control at 125 g/ha [1, 10]: 30% | pest or weed control at 250 g/ha [1, 11]: 75% | pest or weed control at 31 g/ha ([1]; Flood, 31 g ai/ha): 0%

Cc1nn(-c2ccc(C(F)(F)F)cc2)nc1Cc1ccnc(C(F)(F)F)c1 [Compound 47, 4-[[5-methyl-2-[4-(trifluoromethyl)phenyl]-2H-1,2,3-triazol-4-yl]methyl]-2-(trifluoromethyl)pyridine]
Plant response rating, Foxtail, Green [2, 12]: 20 | Plant response rating, Foxtail, Green [2, 13]: 98 | Plant response rating, Foxtail, Green [2, 14]: 100 | Plant response rating, Foxtail, Green [2, 15]: 100 | Plant response rating, Foxtail, Green [2, 16]: 100 | Plant response rating, Foxtail, Green [2, 17]: 100 | Plant response rating, Foxtail, Green [2, 18]: 100 | Plant response rating, Foxtail, Green [2, 19]: 100 | Plant response rating, Goosegrass [3, 12]: 5 | Plant response rating, Goosegrass [3, 13]: 35 | Plant response rating, Goosegrass [3, 14]: 70 | Plant response rating, Goosegrass [3, 15]: 75 | Plant response rating, Goosegrass [3, 16]: 98 | Plant response rating, Goosegrass [3, 17]: 100 | Plant response rating, Goosegrass [3, 18]: 100 | Plant response rating, Goosegrass [3, 19]: 100 | pest or weed control at 62 g/ha [1, 9]: 85% | pest or weed control at 125 g/ha [1, 10]: 90% | pest or weed control at 250 g/ha [1, 11]: 90% | pest or weed control at 31 g/ha ([1]; Flood, 31 g ai/ha): 75% | Plant response rating, Barley [4, 20]: 35 | Plant response rating, Barley [4, 21]: 45 | Plant response rating, Barley [4, 22]: 50 | Plant response rating, Barley ([4]; 250 g ai/ha, scale 0 to 100): 55

Cc1nn(-c2ccc(C(F)(F)F)cc2)nc1Cc1cccc(C(F)(F)F)c1 [Compound 124]
Plant response rating, Foxtail, Green [2, 23]: 65 | Plant response rating, Foxtail, Green [2, 12]: 70 | Plant response rating, Foxtail, Green [2, 13]: 90 | Plant response rating, Foxtail, Green [2, 14]: 95 | Plant response rating, Goosegrass [3, 23]: 25 | Plant response rating, Goosegrass [3, 12]: 45 | Plant response rating, Goosegrass [3, 13]: 55 | Plant response rating, Goosegrass [3, 14]: 65 | Plant response rating, Sedge, Umbrella [1, 10]: 90 | Plant response rating, Sedge, Umbrella [1, 11]: 90 | Plant response rating, Sedge, Umbrella ([1]; Flood, 31 g ai/ha): 50 | Plant response rating, Sedge, Umbrella ([1]; Flood, 62 g ai/ha): 90 | Plant response rating, Barley ([4]; 16 g ai/ha, scale 0 to 100, 0 no effect, 100 complete control): 5 | Plant response rating, Barley [4, 20]: 15 | Plant response rating, Barley [4, 21]: 30 | Plant response rating, Barley [4, 22]: 30

CCc1nn(-c2ccc(C(F)(F)F)cc2)nc1Oc1cccc(OC(F)(F)F)c1 [Compound 125, 4-ethyl-5-[3-(trifluoromethoxy)phenoxy]-2-[4-(trifluoromethyl)phenyl]-2H-1,2,3-triazole]
pest or weed control at 125 g/ha [1, 10]: 80% | pest or weed control at 250 g/ha [1, 11]: 85% | pest or weed control at 31 g/ha ([1]; Flood, 31 g ai/ha): 0% | pest or weed control at 62 g/ha ([1]; Flood, 62 g ai/ha): 40%

Fc1ccc(-n2nc(Cc3ccnc(C(F)(F)F)c3)c(OCC(F)(F)F)n2)cc1 [Compound 142]
Plant response rating, Foxtail, Green [2, 12]: 100 | Plant response rating, Foxtail, Green [2, 13]: 100 | Plant response rating, Foxtail, Green [2, 14]: 100 | Plant response rating, Foxtail, Green [2, 15]: 100 | Plant response rating, Foxtail, Green [2, 16]: 90 | Plant response rating, Foxtail, Green [2, 17]: 90 | Plant response rating, Foxtail, Green [2, 18]: 90 | Plant response rating, Foxtail, Green [2, 19]: 90 | Plant response rating, Goosegrass [3, 12]: 35 | Plant response rating, Goosegrass [3, 13]: 35 | Plant response rating, Goosegrass [3, 14]: 70 | Plant response rating, Goosegrass [3, 15]: 90 | Plant response rating, Goosegrass [3, 16]: 100 | Plant response rating, Goosegrass [3, 17]: 100 | Plant response rating, Goosegrass [3, 18]: 100 | Plant response rating, Goosegrass [3, 19]: 100 | Plant response rating, Barley [4, 20]: 20 | Plant response rating, Barley [4, 21]: 35 | Plant response rating, Barley [4, 22]: 40 | Plant response rating, Barley ([4]; 250 g ai/ha, scale 0 to 100): 45

Cc1nn(-c2ccc(F)c(C(F)(F)F)c2)nc1Oc1ccnc(C(F)(F)F)c1 [Compound 147]
Plant response rating, Foxtail, Green [2, 16]: 95 | Plant response rating, Foxtail, Green [2, 17]: 95 | Plant response rating, Foxtail, Green [2, 18]: 95 | Plant response rating, Foxtail, Green [2, 19]: 95 | Plant response rating, Goosegrass [3, 16]: 98 | Plant response rating, Goosegrass [3, 17]: 100 | Plant response rating, Goosegrass [3, 18]: 100 | Plant response rating, Goosegrass [3, 19]: 100 | Plant response rating: Russian Thistle [5, 20]: 85 | Plant response rating: Russian Thistle [5, 21]: 80 | Plant response rating: Russian Thistle [5, 22]: 80 | Plant response rating, Russian Thistle ([5]; 16 g ai/ha, scale 0 to 100): 45 | Plant response rating: Wheat, Winter [6, 12]: 15 | Plant response rating: Wheat, Winter [6, 13]: 15 | Plant response rating: Wheat, Winter [6, 14]: 20 | Plant response rating, Wheat, Winter [6, 24]: 10 | Plant response rating, Wheat, Winter [6, 25]: 0 | Plant response rating, Wheat, Winter [6, 26]: 0 | Plant response rating, Wheat, Winter [6, 27]: 0 | Plant response rating, Wheat, Winter [6, 28]: 5 | Plant response rating: Bluegrass [7, 12]: 10 | Plant response rating: Bluegrass [7, 13]: 55 | Plant response rating: Bluegrass [7, 14]: 70 | Plant response rating, Bluegrass [7, 24]: 5 | Plant response rating, Bluegrass [7, 25]: 0 | Plant response rating, Bluegrass [7, 26]: 15 | Plant response rating, Bluegrass [7, 27]: 20 | Plant response rating, Bluegrass [7, 28]: 35 | Plant response rating: Field Violet [8, 12]: 95 | Plant response rating: Field Violet [8, 13]: 100 | Plant response rating: Field Violet [8, 14]: 90 | Plant response rating, Field Violet [8, 24]: 95 | Plant response rating, Field Violet [8, 25]: 75 | Plant response rating, Field Violet [8, 26]: 100 | Plant response rating, Field Violet [8, 27]: 95 | Plant response rating, Field Violet [8, 28]: 100
